Converted amounts (≈) assume the structure as drawn. The source made the active and inactive calls. The rule behind the calls is not given here.
How the values were obtained:
[1] = target: Matrix metalloproteinase-9 (Homo sapiens, UniProt P14780); test: Inhibition of proMMP-9 (unknown origin)
[2] = Solubility of compound; assay type: physicochemical
[3] = target: Stromelysin-1 (Homo sapiens) (UniProt P08254); test: Inhibition of MMP-3 catalytic activity (unknown origin)
[4] = target: 72 kDa type IV collagenase (Homo sapiens, UniProt P08253); test: Inhibition of proMMP-2 (unknown origin)
Sequence of 72 kDa type IV collagenase (P08253 whole entry): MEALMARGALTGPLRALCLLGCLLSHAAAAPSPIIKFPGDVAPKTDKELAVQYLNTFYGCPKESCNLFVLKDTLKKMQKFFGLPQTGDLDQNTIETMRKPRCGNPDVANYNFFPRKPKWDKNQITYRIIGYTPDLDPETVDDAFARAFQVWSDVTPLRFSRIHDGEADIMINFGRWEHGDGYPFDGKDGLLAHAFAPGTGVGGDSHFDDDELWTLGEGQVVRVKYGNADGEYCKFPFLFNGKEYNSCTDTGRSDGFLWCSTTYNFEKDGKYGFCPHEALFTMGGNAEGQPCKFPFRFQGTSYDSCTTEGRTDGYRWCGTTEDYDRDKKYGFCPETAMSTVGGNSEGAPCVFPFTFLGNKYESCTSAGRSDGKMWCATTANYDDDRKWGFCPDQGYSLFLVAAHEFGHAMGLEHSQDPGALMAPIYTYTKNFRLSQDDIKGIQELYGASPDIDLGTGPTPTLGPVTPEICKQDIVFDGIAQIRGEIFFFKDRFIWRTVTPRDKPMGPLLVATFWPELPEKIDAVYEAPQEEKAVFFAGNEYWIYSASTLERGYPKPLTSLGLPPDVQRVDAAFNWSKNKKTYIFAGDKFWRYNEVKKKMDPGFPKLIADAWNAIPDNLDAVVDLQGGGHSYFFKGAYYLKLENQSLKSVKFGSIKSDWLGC

[5] = target: Collagenase 3 (Homo sapiens, UniProt P45452); test: Inhibition of proMMP-13 (unknown origin)

Sequence of Matrix metalloproteinase-9 (P14780 whole entry): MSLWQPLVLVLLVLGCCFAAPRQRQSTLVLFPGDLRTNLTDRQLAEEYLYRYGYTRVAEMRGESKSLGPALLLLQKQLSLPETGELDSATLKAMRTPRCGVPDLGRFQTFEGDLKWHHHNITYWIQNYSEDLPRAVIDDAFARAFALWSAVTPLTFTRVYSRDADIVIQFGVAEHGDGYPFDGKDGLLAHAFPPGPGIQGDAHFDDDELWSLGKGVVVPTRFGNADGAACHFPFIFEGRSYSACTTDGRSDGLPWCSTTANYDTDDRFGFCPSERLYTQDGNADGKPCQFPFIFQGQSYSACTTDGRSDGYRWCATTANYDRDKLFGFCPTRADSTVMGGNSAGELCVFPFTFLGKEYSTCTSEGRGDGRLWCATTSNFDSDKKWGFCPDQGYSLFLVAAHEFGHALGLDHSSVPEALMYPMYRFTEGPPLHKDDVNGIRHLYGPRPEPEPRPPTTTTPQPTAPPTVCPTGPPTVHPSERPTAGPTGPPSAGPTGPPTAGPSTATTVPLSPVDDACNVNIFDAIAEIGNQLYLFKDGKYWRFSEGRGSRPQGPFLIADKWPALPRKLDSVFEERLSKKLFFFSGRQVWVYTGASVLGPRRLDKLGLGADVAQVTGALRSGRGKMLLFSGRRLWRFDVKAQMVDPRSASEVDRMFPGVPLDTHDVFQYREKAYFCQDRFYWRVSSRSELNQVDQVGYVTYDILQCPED
Sequence of Stromelysin-1 (Homo sapiens) (P08254 100-477 limits assumed): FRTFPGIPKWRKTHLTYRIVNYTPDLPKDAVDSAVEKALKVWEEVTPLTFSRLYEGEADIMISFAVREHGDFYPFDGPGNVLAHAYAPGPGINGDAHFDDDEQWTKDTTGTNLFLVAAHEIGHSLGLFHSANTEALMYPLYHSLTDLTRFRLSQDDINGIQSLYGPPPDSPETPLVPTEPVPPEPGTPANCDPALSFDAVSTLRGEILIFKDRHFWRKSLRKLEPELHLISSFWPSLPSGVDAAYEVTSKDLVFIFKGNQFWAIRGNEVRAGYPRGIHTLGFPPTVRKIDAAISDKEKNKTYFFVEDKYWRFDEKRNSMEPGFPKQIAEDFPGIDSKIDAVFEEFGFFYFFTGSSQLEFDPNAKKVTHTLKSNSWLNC

Structure (SMILES) | IC50 [1] [nM] | solubility [2] [µg/mL] | inhibition [3] | IC50 [4] [nM] | IC50 [5] [nM]
O=C(c1cc2ccc(C3CC3)cc2[nH]1)N1CCc2ccccc2C1 | > 50000 | – | – | – | –
O=C(c1cc2ccc(CCO)cc2[nH]1)N1CCCc2cnccc2C1 | 1100 | > 33 | – | – | –
CNc1cc(F)cc2cc(C(=O)N3CCc4ccc(C(=O)NCCN5CCCC5)cc4C3)[nH]c12 | 2600 | – | inactive | – | –
O=C(NCCN1CCCC1)c1ccc2c(c1)CN(C(=O)c1cc3c(F)cc(C4CC4)cc3[nH]1)CC2 | 1000 | – | – | – | –
O=C(c1cc2ccc(C3CC3)cc2[nH]1)N1CCc2cnccc2C1 | > 50000 | – | – | – | –
CCc1cccc2c(C(=O)N3CCc4ocnc4C3)n[nH]c12 | 8500 | – | inactive | – | –
O=C(c1cc2ccc(C3CC3)cc2[nH]1)N1CCc2ocnc2C1 | 1100 | – | – | – | –

The next molecules have a lower IC50 [1] than those just listed; values first:

IC50 [1] [nM] | solubility [2] [µg/mL] | inhibition [3] | IC50 [4] [nM] | IC50 [5] [nM] | Structure (SMILES)
110 | 1.3 (≈ 3.74 µM) | – | – | – | CC(C)(C)c1ccc2cc(C(=O)N3CCCc4cnccc4C3)[nH]c2c1
120 | 0.8 (≈ 2.5 µM) | – | – | – | CCc1ccc2cc(C(=O)N3CCCc4cnccc4C3)[nH]c2c1
580 | > 35 | – | – | – | CC(C)(O)c1ccc2cc(C(=O)N3CCCc4cnccc4C3)[nH]c2c1
81 | 8.6 (≈ 25.9 µM) | – | – | – | O=C(c1cc2ccc(C3CC3)cc2[nH]1)N1CCCc2cnccc2C1
160 | 3 (≈ 7.99 µM) | – | – | – | C[C@]1(O)C[C@@H](c2ccc3cc(C(=O)N4CCCc5cnccc5C4)[nH]c3c2)C1
44 | – | – | > 30000 | > 30000 | CC(C)(O)c1ccc2cc(C(=O)N3CCCc4cnc(N)c(F)c4C3)[nH]c2c1
120 | 0.4 (≈ 1.16 µM) | – | – | – | O=C(c1cc2ccc(C3CCC3)cc2[nH]1)N1CCCc2cnccc2C1

— ChEMBL document CHEMBL5584207, “Discovery of novel indole derivatives as potent and selective inhibitors of proMMP-9 activation” (Bioorg Med Chem Lett, 2024)
